For one data set, the system named is liver. The data set is described as follows: Biochemical assay of rat serum in DEN-induced hepatocellular carcinoma rat model. In kind it is in vivo. As to the method: Hepatocellular carcinoma (HCC) is a well-known malignant liver tumor often caused by liver cirrhosis. N-Nitrosodiethylamine ([…], DEN), which is a toxic substance with strong liver toxicity, was used to induce HCC in a rat tumor model. The dose of 300 g rats was 0.75 ml DEN/5 liters in drinking water; the dose of 400 g rats was 1.0 ml DEN/5 liters in drinking water. When the rats weighed over 200 g (about 6-7 weeks), they started to be fed. Group 1 was fed a half dose DEN, while Group 3 was fed a full dose. After 6 weeks of consecutive feeding (at the 12th week of experiment), feeding DEN to Group 1 discontinued. Group 3 continued scheduled DEN feedings for three additional weeks. Liver tumors were formed and confirmed by high-frequency ultrasonic imaging in vivo.
After rats were sacrificed, blood was collected and centrifuged, and the serum from centrifuge was tested, which included albumin, total bilirubin, glutamic pyruvic transaminase and glutamic oxaloacetic transaminase. If the liver is abnormal, the albumin content in the blood will decrease. Total bilirubin contains direct bilirubin and indirect bilirubin, which are the product of liver metabolism. If liver function is abnormal, total bilirubin in blood rises. Glutamic-pyruvate transaminase (GPT) and glutamic oxaloacetic transaminase (GOT) are also commonly used markers to evaluate liver function, although these two enzymes are not only found in the liver. Nevertheless, they are more abundant in liver cells than in other organs or tissue. When the liver is damaged, inflamed liver cells release GPT and GOT into the blood in large quantities. Therefore, the amount of these factors in the blood may be useful as a basis for judging the health of liver function. In addition, the liver was made into a paraffin block and processed with H&E staining. The staining results were observed and imaged by Nikon ECLIPSE NiE orthotropic fluorescence microscope.

The conditions of data set [1]: healthy person; cited from earlier work.
The nature of data set [2]: ICG fluorescence dosimetry in rat blood vessels (retention/decay of ICG in circulation). It counts as in vivo. As to the method:
Embodiments of the present disclosure enable systems and methods for detecting organ dysfunction and were validated using two optical systems to perform ICG fluorescence dosimetry on rats developing hepatocellular carcinoma (HCC).
One optical system used was a multiphoton microscope, which can non-invasively identify the location of vessels in vivo from sectioning two-photon fluorescence imaging. Time-course dynamics of concentration decay were also analyzed by the signal intensity within vessels. The other tested optical system was a point excitation and time course measurement using a 785 nm laser.
As shown in the diagram of FIG. 11, the multiphoton microscopy system used the scanning inverted microscope system of Leica DMI 3000M. The laser source was the femtosecond Cr:forsterite laser with a central wavelength of about 1250 nm. The output power was about 570 mW, and the beam diameter was about 2.5 mm. The excited light passed through a set of Galilean telescopes consisting of flat convex lenses and flat concave lenses to shrink the beam size down below 2 mm. Then, the excited beam passed through the periscope to rotate the polarization. After passing through the Iris Pair for system alignment, the beam entered a scanning module composed of a 16 kHz resonant mirror and a galvanometer mirror. The scanning angle of the resonant scanner was 5 degrees. The excited light was expanded by a set of relaying lenses so that it just filled the back aperture of the objective lens. The excitation beam was reflected by a 900-nm edged dichroic beam splitter (DM 900 SP) and focused by an objective lens (63×/NA 1.15. Zeiss) to excite biological tissues.
The generated two-photon fluorescence signals of ICG were epi-collected by the same objective lens and penetrated the DM900 SP. The signals were directed to a 484 nm edged dichroic beam splitter (DM484LP). The third harmonic generation signal (417 nm) was separated from the fluorescent signals longer than 484 nm. The third harmonic generation (THG) and two photon fluorescent (TPF) signals were filtered by a 414 nm/18 nm band pass filter and a 650 nm long pass filter, respectively. These signals were subsequently detected by photomultiplier tubes and digitized by a field programmable logic gate array (FPGA).
After the injection of ICG into the tail, there was a relatively low scattering and absorption of laser in the 1230 nm band, so the wavelength band could penetrate the skin deeper, and the background noise was low. Because blood cells can give strong THG signals, it was possible to locate the blood vessel by using THG imaging, as shown in FIG. 15A. Before ICG injection, there was no TPF signal (see FIG. 15B). After the injection, the TPF signals appeared immediately in the region of vessel (see FIG. 15C).
By selecting the region of interest (ROI) within vessel, we quantified the TPF intensity within the vessels. The fluorescence dosimetry curve of ICG can thus be measured (as shown in FIG. 16), which is ideal to evaluate the liver function. The dosimetry curve can be fitted with a single exponential decay function (red curve in FIG. 16), which represents a 4.4 minutes decay time constant after injection of ICG. The decay constant can be used as an index to evaluate the liver function. For Group 1 and Group 3 four serum parameters were measured to obtain liver function information: serum albumin, total bilirubin, GPT, and GOT. […]

Where [3] appears, read: Group 1: half dose DEN in drinking water, 6 weeks.
Setting [4] is: Group 3: full dose DEN in drinking water, 9 weeks.
[5] abbreviates: Group 3 rats (full dose DEN, HCC), FIG. 18.

Data on two compounds can be found in patent publication US12251234B2, “Systems and methods for transdermally detecting tissue ischemia and evaluating organ function using serum luminescence” (University of Macau, priority 2018, dated 2025).

In the data set on liver (setting [3]), `CCN(CC)N=O` [DEN, N-Nitrosodiethylamine] had an Albumin of 3.9 g/dL, a GOT of 89 U/L, a GPT of 60.3 U/L and a Total bilirubin of 0.27 mg/dL. In the data set with liver (setting [4]), this compound yielded an Albumin of 3.75 g/dL, a GOT of 265 U/L, a GPT of 129 U/L and a Total bilirubin of 0.6 mg/dL.
As for `CC1(C)C(/C=C/C=C/C=C/C=C2\N(CCCCS(=O)(=O)O)c3ccc4ccccc4c3C2(C)C)=[N+](CCCCS(=O)(=O)[O-])c2ccc3ccccc3c21` [ICG, indocyanine green], in data set [1], the “ICG-15 (retention percentage at 15 minutes post ICG injection)” value is recorded as “below 10 % of the initial concentration”. In addition, in data set [2] (setting [5]), the “decay time (exponential decay model fit)” value came to 13 min and the “initial amount still retained in circulation at 15 minutes post injection” value worked out at 45%. The “decay time constant after injection of ICG (single exponential decay fit)” value in data set [2] (healthy control Group rats, FIG. 16) was found to be 4.4 min. Further, the “amount of ICG metabolized within 15 minutes” value in data set [2] (healthy control Group rats, TPF dosimetry curve, FIG. 16) was 90%. Besides, the “leakage of ICG out of blood vessels (TPF imaging after tail injection)” value in data set [2] (rat, sectioning TPF/THG images, FIG. 15) is “did not leak out into extravascular spaces”.
